From US20050070558A1, “6-Phenyldihydropyrrolopyrimidinedione derivatives” (priority 2001, published 2005)
pIC50: −log10 of the molar value.

molecular target: T1, hA2a receptors (Homo sapiens, UniProt P29274); test: Adenosine 2a receptor subtype competition radioligand binding ([3H]ZM241385); settings: membranes from hA2a receptors transfected to HEK293 cells, [3H]ZM241385, 90 min at 25° C.; read-out: IC50 A2a
T1 construct: purchased Receptor Biology, Inc. (USA); host or cells: HEK293
Procedure: Adenosine 2a Receptor Subtype Competition Radioligand Binding
Human membranes from recombinant A2a receptors were purchased from Receptor Biology, Inc. (USA).
Competition assays were carried out by incubation of membranes from hA2a receptors transfected to HEK293 cells, [^3H]ZM241385 as radioligand, buffer (50 mM Tris-HCl (pH 7.4), 10 mM MgCl2, 1 mM EDTA, 2 units/ml adenosine deaminase), and unlabelled ligand in a total volume of 0.2 ml for 90 min at 25° C. NECA was used to determinate non-specific binding. Filter over Schleicher&Schuell GF/52 filters (pre-soaked 0.5% polyethylenyimine) in a Brandel cell harvester. Unbound radioligand was removed with 3×3 ml ice-cold 50 mM Tris-Hcl 50 mM (pH 7.4), 0.9% NaCl.

T1 sequence (P29274 whole entry): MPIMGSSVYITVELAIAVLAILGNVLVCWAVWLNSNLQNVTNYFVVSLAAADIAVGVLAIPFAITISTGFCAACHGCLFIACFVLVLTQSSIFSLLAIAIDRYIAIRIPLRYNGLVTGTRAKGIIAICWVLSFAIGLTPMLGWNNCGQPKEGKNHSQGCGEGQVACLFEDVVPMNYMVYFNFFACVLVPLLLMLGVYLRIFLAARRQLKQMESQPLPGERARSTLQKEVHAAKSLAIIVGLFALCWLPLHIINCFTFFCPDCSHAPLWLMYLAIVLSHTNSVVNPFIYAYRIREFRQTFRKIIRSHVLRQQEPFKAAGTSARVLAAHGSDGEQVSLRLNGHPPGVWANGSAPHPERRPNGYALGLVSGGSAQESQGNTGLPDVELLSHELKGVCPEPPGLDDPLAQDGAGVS

pIC50 | Structure (SMILES)
7.66 | CCCn1c(=O)c2[nH]c(-c3ccc(OCC(=O)Nc4ccc(F)cc4)cc3)cc2n(CCC)c1=O [Example 3, 2-[4-(2,4-Dioxo-1,3-dipropyl-2,3,4,5-tetrahydro-1H-pyrrolo[3,2-d]pyrimidin-6-yl)phenoxy]-N-(4-fluorophenyl)acetamide]
7.59 | Cn1c(=O)c2[nH]c(-c3ccc(OCC(=O)Nc4nncs4)cc3)cc2n(C)c1=O [Example 67, 2-[4-(1,3-Dimethyl-2,4-dioxo-2,3,4,5-tetrahydro-1H-pyrrolo[3,2-d]pyrimidin-6-yl)phenoxy]-N-[1,3,4]thiadiazol-2-ylacetamide]
7.42 | CCCn1c(=O)c2[nH]c(-c3ccc(OCC(=O)Nc4ccc(F)cc4)cc3)c(Br)c2n(CCC)c1=O [Example 138, 2-[4-(7-Bromo-2,4-dioxo-1,3-dipropyl-2,3,4,5-tetrahydro-1H-pyrrolo[3,2-d]pyrimidin-6-yl)phenoxy]-N-(4-fluorophenyl)acetamide]
7.08 | COc1cc(-c2cc3c([nH]2)c(=O)n(C)c(=O)n3C)ccc1OCC(=O)Nc1ccc(F)cc1 [Example 160, 2-[4-(1,3-Dimethyl-2,4-dioxo-2,3,4,5-tetrahydro-1H-pyrrolo[3,2-d]pyrimidin-6-yl)-2-methoxyphenoxy]-N-(4-fluorophenyl)acetamide]

molecular target: T2, hA2b receptors (Homo sapiens, UniProt P29275); test: Adenosine 2b receptor subtype competition radioligand binding ([3H]DPCPX); settings: membranes from hA2b receptors transfected to HEK293 cells, 30 min at 25° C., read-out: IC50 A2b
T2 construct: purchased Receptor Biology, Inc. (USA); host or cells: HEK293
T2 sequence (P29275 1-332): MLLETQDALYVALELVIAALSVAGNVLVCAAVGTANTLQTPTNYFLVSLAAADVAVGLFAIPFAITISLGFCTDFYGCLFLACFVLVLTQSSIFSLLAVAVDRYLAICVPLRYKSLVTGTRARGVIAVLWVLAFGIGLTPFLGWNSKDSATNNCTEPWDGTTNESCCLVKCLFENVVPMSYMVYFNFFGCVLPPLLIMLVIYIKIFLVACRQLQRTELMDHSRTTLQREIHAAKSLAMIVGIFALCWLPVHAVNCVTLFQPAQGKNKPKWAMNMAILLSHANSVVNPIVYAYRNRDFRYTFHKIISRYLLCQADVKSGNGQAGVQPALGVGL
Procedure: Adenosine 2b Receptor Subtype Competition Radioligand Binding
Human membranes from recombinant A2b receptors were purchased from Receptor Biology, Inc. (USA).
Competition assays were carried out by incubation of membranes from hA2b receptors transfected to HEK293 cells, [^3H]DPCPX as radioligand, buffer (50 mM Tris-HCl (pH 6.5), 10 mM MgCl2, 1 mM EDTA, 0.1 mM benzamidine, 2 units/ml adenosine deaminase), and unlabelled ligand in a total volume of 0.1 ml for 30 min at 25° C. NECA was used to determinate non-specific binding. Filter over Schleicher&Schuell GF/52 filters (pre-soaked 0.5% polyethylenyimine) in a Brandel cell harvester. Unbound radioligand was removed with 4×2 ml ice-cold 50 mM Tris-Hcl 50 mM (pH 6.5).

Structure (SMILES) | pIC50
CCCn1c(=O)c2[nH]c(-c3ccc(OCC(=O)N4CCN(c5ccccc5)CC4)cc3)cc2n(CCC)c1=O [Example 2, 6-{4-[2-Oxo-2-(4-phenylpiperazin-1-yl)ethoxy]phenyl}-1,3-dipropyl-1,5-dihydropyrrolo[3,2-d]pyrimidine-2,4-dione] | 8.15
Cn1c(=O)c2[nH]c(-c3ccc(OCC(=O)Nc4nncs4)cc3)cc2n(C)c1=O [Example 67, 2-[4-(1,3-Dimethyl-2,4-dioxo-2,3,4,5-tetrahydro-1H-pyrrolo[3,2-d]pyrimidin-6-yl)phenoxy]-N-[1,3,4]thiadiazol-2-ylacetamide] | 7.62
CCCn1c(=O)c2[nH]c(-c3ccc(OCC(=O)N4CCC(c5ccccc5)(c5ccccc5)CC4)cc3)cc2n(C)c1=O [Example 100, 6-{4-[2-(4,4-Diphenylpiperidin-1-yl)-2-oxo-ethoxy]phenyl}-1-methyl-3-propyl-1,5-dihydropyrrolo[3,2-d]pyrimidine-2,4 dione] | 8.00
CCCn1c(=O)c2[nH]c(-c3ccc(OCc4nc(-c5ccccc5)no4)cc3)cc2n(CCC)c1=O [Example 210, 6-[4-(3-Phenyl[1,2,4]oxadiazol-5-ylmethoxy)phenyl]-1,3-dipropyl-1,5-dihydropyrrolo[3,2-d]pyrimidine-2,4-dione] | 7.77

Continued, values first:

pIC50 | Structure (SMILES)
8.30 | CCCn1c(=O)c2[nH]c(-c3ccc(OCC(=O)Nc4ccc(F)cc4)cc3)cc2n(CCC)c1=O [Example 3, 2-[4-(2,4-Dioxo-1,3-dipropyl-2,3,4,5-tetrahydro-1H-pyrrolo[3,2-d]pyrimidin-6-yl)phenoxy]-N-(4-fluorophenyl)acetamide]
8.52 | CCCn1c(=O)c2[nH]c(-c3ccc(OCC(=O)N4CCc5ccccc5C4)cc3)cc2n(CCC)c1=O [Example 4]
8.10 | Cn1c(=O)c2[nH]c(-c3ccc(OCC(=O)N4CCN(c5ccccc5)CC4)cc3)cc2n(C)c1=O [Example 68, 1,3-Dimethyl-6-{4-[2-oxo-2-(4-phenylpiperazin-1-yl)ethoxy]phenyl}-1,5-dihydropyrrolo[3,2-d]pyrimidine-2,4-dione]

system: not given; test: not given; settings: not given

Structure (SMILES) | melting point
Cn1c(=O)c2[nH]c(-c3ccc(COC(=O)Nc4ccccn4)cc3)cc2n(C)c1=O [Example 268, Pyridin-2-yl-carbamic acid 4-(1,3-dimethyl-2,4-dioxo-2,3,4,5-tetrahydro-1H-pyrrolo[3,2-d]pyrimidin-6-yl)benzyl ester] | 301 °C
Cc1ccc(NC(=O)OCc2ccc(-c3cc4c([nH]3)c(=O)n(C)c(=O)n4C)cc2)nc1 [Example 269, (5-Methylpyridin-2-yl)-carbamic acid 4-(1,3-dimethyl-2,4-dioxo-2,3,4,5-tetrahydro-1H-pyrrolo[3,2-d]pyrimidin-6-yl)benzyl ester] | 293 °C
Cn1c(=O)c2[nH]c(-c3ccc(COC(=O)Nc4ccsc4)cc3)cc2n(C)c1=O [Example 271, Thiophen-3-yl-carbamic acid 4-(1,3-dimethyl-2,4-dioxo-2,3,4,5-tetrahydro-1H-pyrrolo[3,2-d]pyrimidin-6-yl)-benzyl ester] | 280 °C
Cn1c(=O)c2[nH]c(-c3ccc(COC(=O)Nc4ccco4)cc3)cc2n(C)c1=O [Example 272, Furan-2-yl-carbamic acid 4-(1,3-dimethyl-2,4-dioxo-2,3,4,5-tetrahydro 1H-pyrrolo[3,2-d]pyrimidin-6-yl)-benzyl ester] | 278 °C

Now from value to compound:

melting point | Structure (SMILES)
> 275 °C (dec.) | Cn1c(=O)c2[nH]c(-c3ccc(OCC(=O)N4CCN(c5cccc(C(F)(F)F)c5)CC4)cc3)cc2n(C)c1=O [Example 74, 1,3-Dimethyl-6-(4-{2-oxo-2-[4-(3-trifluoromethylphenyl)piperazin-1-yl]ethoxy}phenyl)-1,5-dihydropyrrolo[3,2-d]pyrimidine-2,4-dione]
182 to 185 °C | CCCn1c(=O)c2[nH]c(-c3ccc(COC(=O)Nc4cc(OC)nc(OC)n4)cc3)cc2n(CCC)c1=O [Example 259, (2,6-Dimethoxy-pyrimidin-4-yl)-carbamic Acid 4-(2,4-dioxo-1,3-dipropyl-2,3,4,5-tetrahydro-1H-pyrrolo[3,2-d]pyrimidin-6-yl)benzyl Ester]
287 °C | Cn1c(=O)c2[nH]c(-c3ccc(COC(=O)Nc4cccs4)cc3)cc2n(C)c1=O [Example 270, Thiophen-2-yl-carbamic acid 4-(1,3-dimethyl-2,4-dioxo-2,3,4,5-tetrahydro-1H-pyrrolo[3,2-d]pyrimidin-6-yl)-benzyl ester]
